The test system of the first assay is HSP70. Nature of the assay: HSP70 levels in Neuro 2a cells, ELISA. Type of assay: cell-based, mouse. Particulars: 100 nM, 48 hrs compound then 24 hrs GGTI-298. As to the method: Mouse neuroblastoma 2a cells were cultured in DMEM with 10% FBS for 24 hrs. […] After 24 hrs cells were harvested and lysates were prepared and analyzed by ELISA for HSP70. Compound ID numbers in table refer to structures in Table 1 and Table 2.
In general terms: An ELISA detects its analyte on a solid surface through an enzyme-linked reagent.
`CCOC(=O)C=C1CCCCC1` [Compound 93]: the “HSP70 level, ELISA signal (absence of compounds normalized as 1.00)” value came out at 0.87.

Regarding `CC(C)=CCC/C(C)=C/CC/C(C)=C/c1ncc(C)o1` [Compound 15, 5-methyl-2-((1E,5E)-2,6,10-trimethylundeca-1,5,9-trien-1-yl)oxazole], the “HSP70 level, ELISA signal (absence of compounds normalized as 1.00)” value is 1.08.

For `CC(C)=CCC/C(C)=C/CC/C(C)=C/CC/C(C)=C/COC(=S)Nc1cccnc1` [Compound 38a, O-((2E,6E,10E)-3,7,11,15-tetramethylhexadeca-2,6,10,14-tetraen-1-yl) pyridin-3-ylcarbamothioate], the “HSP70 level, ELISA signal (absence of compounds normalized as 1.00)” value is given as 0.79.

On to `CCCC(=O)C(C/C=C(\C)CC/C=C(\C)CC/C=C(\C)CCC=C(C)C)C(=O)OCC` (centres unmarked) [Compound 70], for which the “HSP70 level, ELISA signal (absence of compounds normalized as 1.00)” value is given as 1.07.

As to `CC(C)=CCC/C(C)=C/CC/C(C)=C/CC/C(C)=C/CCC(=O)c1ccoc1` [Compound 69], the “HSP70 level, ELISA signal (absence of compounds normalized as 1.00)” value was 0.90.

Turning to `CC(C)=CCC/C(C)=C/CC/C(C)=C/CC/C(C)=C/COC(=O)Nc1ccncc1` [Compound 39, (2E,6E,10E)-3,7,11,15-tetramethylhexadeca-2,6,10,14-tetraen-1-yl pyridin-4-ylcarbamate], the “HSP70 level, ELISA signal (absence of compounds normalized as 1.00)” value was 1.15.

Turning to `CC(C)=CCC/C(C)=C/CC/C(C)=C/CC/C(C)=C/CC1CCCCCC1=O` (centres unmarked) [Compound 147], the “HSP70 level, ELISA signal (absence of compounds normalized as 1.00)” value is on record as 0.94.

For `COCC(=O)C(C/C=C(\C)CC/C=C(\C)CC/C=C(\C)CCC=C(C)C)C(=O)OC` (centres unmarked) [Compound 80], the “HSP70 level, ELISA signal (absence of compounds normalized as 1.00)” value came out at 1.02.

With `COc1ccc(NC(=O)OC/C=C(\C)CC/C=C(\C)CC/C=C(\C)CCC=C(C)C)cc1OC` [Compound 7t, 3′,4′-Dimethoxyphenyl 2E, 6E, 10E-geranylgeranyl carbamate], the “HSP70 level, ELISA signal (absence of compounds normalized as 1.00)” value came out at 1.07.

On to `CC(C)=CCC/C(C)=C/CC/C(C)=C/CC/C(C)=C/CC/C(C)=N/OC1CCCCO1` (centres unmarked) [Compound 111], for which the “HSP70 level, ELISA signal (absence of compounds normalized as 1.00)” value came to 1.10.

As for `CC(C)=CCC/C(C)=C/CC/C(C)=C/CC/C(C)=C/COC(=O)Nc1ccc(C(=O)c2ccccc2)cc1` [Compound 7u, p-Benzoyl phenyl 2E, 6E, 10E-geranylgeranyl carbamate], the “HSP70 level, ELISA signal (absence of compounds normalized as 1.00)” value came to 1.03.

Turning to `CCOC(=O)C(C)(C/C=C(\C)CC/C=C(\C)CC/C=C(\C)CCC=C(C)C)C(C)=O` (centres unmarked) [Compound 78], the “HSP70 level, ELISA signal (absence of compounds normalized as 1.00)” value is 1.00.

For `CC(C)=CCC/C(C)=C/CC/C(C)=C/CC/C(C)=C/C1=N[C@H](C)CO1` [Compound 27d, (R)-4-methyl-2-((1E,5E,9E)-2,6,10,14-tetramethylpentadeca-1,5,9,13-tetraen-1-yl)-4,5-dihydrooxazole], the “HSP70 level, ELISA signal (absence of compounds normalized as 1.00)” value was 1.04.

For the compound `CCCCCNC(=O)OC(C)CC/C=C(\C)CC/C=C(\C)CC/C=C(\C)CCC=C(C)C` (racemic) [Compound 23b, 5E, 9E, 13E-Geranylgeranyl-rac-prop-2-yl n-pentyl carbamate], the “HSP70 level, ELISA signal (absence of compounds normalized as 1.00)” value is 1.13.

`CC(C)=CCC/C(C)=C/CC/C(C)=C/CC/C(C)=C/CCC(C)OC(=O)NC1CCCCCC1` (racemic) [Compound 23e, Cycloheptyl 5E, 9E, 13E-geranylgeranyl-rac-prop-2-yl carbamate]: the “HSP70 level, ELISA signal (absence of compounds normalized as 1.00)” value stood at 0.97.

For the compound `CC(C)=CCC/C(C)=C/CC/C(C)=C/CC/C(C)=C/CCC(=O)C(C)C` [Compound 74], the “HSP70 level, ELISA signal (absence of compounds normalized as 1.00)” value was 1.08.

For the compound `CCOC(=O)C(C/C=C(\C)CC/C=C(\C)CC/C=C(\C)CCC=C(C)C)C(=O)c1ccoc1` (centres unmarked) [Compound 68], the “HSP70 level, ELISA signal (absence of compounds normalized as 1.00)” value was determined as 1.11.

For the compound `CCCCCCNC(=O)OC(C)CC/C=C(\C)CC/C=C(\C)CC/C=C(\C)CCC=C(C)C` (racemic) [Compound 23f, 5E, 9E, 13E-Geranylgeranyl-rac-prop-2-yl n-hexyl carbamate], the “HSP70 level, ELISA signal (absence of compounds normalized as 1.00)” value is given as 0.91.

For `CC(C)=CCC/C(C)=C/CC/C(C)=C/CC/C(C)=C/CC/C(C)=N/OCc1ccccc1` [Compound 113], the “HSP70 level, ELISA signal (absence of compounds normalized as 1.00)” value is 1.01.

`CC(C)=CCC/C(C)=C/CC/C(C)=C/CC/C(C)=C/COC(=O)NCc1ccco1` [Compound 7aa, 2′-Furanyl methyl 2E, 6E, 10E]-geranylgeranyl carbamate]: the “HSP70 level, ELISA signal (absence of compounds normalized as 1.00)” value was 1.05.

For the compound `CC(C)=CCC/C(C)=C/CC/C(C)=C/CC/C(C)=C/CNCCCOC(C)C` [Compound 17d], the “HSP70 level, ELISA signal (absence of compounds normalized as 1.00)” value came out at 1.01.

`CC(C)=CCC/C(C)=C/CC/C(C)=C/CC/C(C)=C/COC(=O)Nc1ccccc1` [Compound 7n, Phenyl 2E, 6E, 10E-geranylgeranyl carbamate]: the “HSP70 level, ELISA signal (absence of compounds normalized as 1.00)” value was determined as 1.20.

For `CC(=O)CC/C=C(\C)CCC=C1CCCCC1` [Compound 92], the “HSP70 level, ELISA signal (absence of compounds normalized as 1.00)” value turned out to be 0.92.

For `COCCC(=O)C(C/C=C(\C)CC/C=C(\C)CC/C=C(\C)CCC=C(C)C)C(=O)OC` (centres unmarked) [Compound 81], the “HSP70 level, ELISA signal (absence of compounds normalized as 1.00)” value was determined as 1.12.

Turning to `CCOC(=O)C(C/C=C(\C)CC/C=C(\C)CC/C=C(\C)CCC=C(C)C)C(=O)C12CC3CC(CC(C3)C1)C2` (centres unmarked) [Compound 71], the “HSP70 level, ELISA signal (absence of compounds normalized as 1.00)” value worked out at 1.03.

On to `C=CCCC(=O)CC/C=C(\C)CC/C=C(\C)CC/C=C(\C)CCC=C(C)C` [Compound 146], for which the “HSP70 level, ELISA signal (absence of compounds normalized as 1.00)” value is 1.13.

The same assay, now with this note: 10uM, 48 hrs compound then 24 hrs GGTI-298.
On to `CCOC(=O)CNC(=O)OC/C=C(\C)CC/C=C(\C)CCC=C(C)C` [Compound 8k, Carboethoxymethyl 2E, 6E-farnesyl carbamate], for which the “HSP70 level, ELISA signal (absence of compounds normalized as 1.00)” value is recorded as 0.99.

As for `CC(C)=CCC/C(C)=C/CC/C(C)=C/CC/C(C)=C/c1nnc(-c2cccnc2)o1` [Compound 29e, 2-(pyridin-3-yl)-5-((1E,5E,9E)-2,6,10,14-tetramethylpentadeca-1,5,9,13-tetraen-1-yl)-1,3,4-oxadiazole], the “HSP70 level, ELISA signal (absence of compounds normalized as 1.00)” value is on record as 1.10.

Take `CC(C)=CCC/C(C)=C/CC/C(C)=C/CC/C(C)=C/COC(=O)Nc1ccc(C)cc1` [Compound 7o, P-Tolyl 2E, 6E, 10E-geranylgeranyl carbamate]: the “HSP70 level, ELISA signal (absence of compounds normalized as 1.00)” value is reported as 1.15.

For the compound `CCNC(=O)OC/C=C(\C)CC/C=C(\C)CCC=C(C)C` [Compound 8h, Ethyl 2E, 6E-farnesyl carbamate], the “HSP70 level, ELISA signal (absence of compounds normalized as 1.00)” value is given as 0.86.

For the compound `CCCCCCNC(=S)OC/C=C(\C)CC/C=C(\C)CC/C=C(\C)CCC=C(C)C` [Compound 10h, n-Hexyl 2E,6E,10E-geranylgeranyl thiocarbamate], the “HSP70 level, ELISA signal (absence of compounds normalized as 1.00)” value was 1.58.

Take `CC(C)=CCC/C(C)=C/CC/C(C)=C/CC/C(C)=C/C1=N[C@H](C)CO1` [Compound 27d, (R)-4-methyl-2-((1E,5E,9E)-2,6,10,14-tetramethylpentadeca-1,5,9,13-tetraen-1-yl)-4,5-dihydrooxazole]: the “HSP70 level, ELISA signal (absence of compounds normalized as 1.00)” value is listed as 1.37.

For the compound `COc1ccc(C(=O)OC/C=C(\C)CC/C=C(\C)CC/C=C(\C)CCC=C(C)C)c(OC)c1` [Compound 2k, 2E, 6E, 10E-Geranylgeranyl-2′,4′-dimethoxybenzoate], the “HSP70 level, ELISA signal (absence of compounds normalized as 1.00)” value is 0.88.

Take `CC(C)=CCC/C(C)=C/c1nc(-c2ccc(F)cc2)no1` [Compound 35b, (E)-5-(2,6-dimethylhepta-1,5-dien-1-yl)-3-(4-fluorophenyl)-1,2,4-oxadiazole]: the “HSP70 level, ELISA signal (absence of compounds normalized as 1.00)” value is 0.95.

Regarding `CC(C)=CCC/C(C)=C/CC/C(C)=C/CC/C(C)=C/COC(=O)Nc1ccc2c(c1)Cc1ccccc1-2` [Compound 7x, 9′H-Fluoren-2′-yl isocyanate 2E, 6E, 10E-geranylgeranyl carbamate], the “HSP70 level, ELISA signal (absence of compounds normalized as 1.00)” value was 1.00.

As for `CC(C)=CCC/C(C)=C/CC/C(C)=C/CC/C(C)=C/C1=N[C@@H](CC(C)C)CO1` [Compound 27c, (S)-4-isobutyl-2-((1E,5E,9E)-2,6,10,14-tetramethylpentadeca-1,5,9,13-tetraen-1-yl)-4,5-dihydrooxazole], the “HSP70 level, ELISA signal (absence of compounds normalized as 1.00)” value was 0.95.

As for `CCC(C)NC(=S)OC/C=C(\C)CC/C=C(\C)CCC=C(C)C` (centres unmarked) [Compound 9b, sec-Butyl 2E, 6E-farnesyl thiocarbamate], the “HSP70 level, ELISA signal (absence of compounds normalized as 1.00)” value was determined as 0.99.

For `CC(C)=CCC/C(C)=C/CC/C(C)=C/CC/C(C)=C/CNC12CC3CC(CC(C3)C1)C2` [Compound 17e, N-Adamantyl-2E,6E,10E-Geranylgeranyl amine], the “HSP70 level, ELISA signal (absence of compounds normalized as 1.00)” value came out at 1.06.

`CC(C)=CCC/C(C)=C/CC/C(C)=C/COC(=O)NC12CC3CC(CC(C3)C1)C2` [Compound 8e, Adamantyl 2E, 6E-farnesyl carbamate]: the “HSP70 level, ELISA signal (absence of compounds normalized as 1.00)” value amounted to 1.09.

For `CC(C)=CCC/C(C)=C/CC/C(C)=C/c1cnco1` [Compound 12, 5-((1E,5E)-2,6,10-trimethylundeca-1,5,9-trien-1-yl)oxazole], the “HSP70 level, ELISA signal (absence of compounds normalized as 1.00)” value was determined as 1.01.

For the compound `CC(C)=CCC/C(C)=C/CC/C(C)=C/CC/C(C)=C/COC(=O)Nc1cccc2ccccc12` [Compound 7r, 1′-Naphthyl 2E, 6E, 10E-geranylgeranyl carbamate], the “HSP70 level, ELISA signal (absence of compounds normalized as 1.00)” value worked out at 0.89.

As to `CC(C)=CCC/C(C)=C/CC/C(C)=C/COC(=O)Nc1ccc(C(F)(F)F)cc1` [Compound 8n, p-Trifluoromethylphenyl 2E, 6E-farnesyl carbamate], the “HSP70 level, ELISA signal (absence of compounds normalized as 1.00)” value was 1.02.

Turning to `CC(C)=CCC/C(C)=C/CC/C(C)=C/CC/C(C)=C/COC(=O)c1c(C)cc(C)cc1C` [Compound 2l, 2E, 6E, 10E-Geranylgeranyl-2′,4′,6′trimethylbenzoate], the “HSP70 level, ELISA signal (absence of compounds normalized as 1.00)” value came out at 1.05.

Consider `CC(C)=CCC/C(C)=C/CC/C(C)=C/CC/C(C)=C/C1=N[C@H](C(C)C)CO1` [Compound 27e, (R)-4-isopropyl-2-((1E,5E,9E)-2,6,10,14-tetramethylpentadeca-1,5,9,13-tetraen-1-yl)-4,5-dihydrooxazole], for which the “HSP70 level, ELISA signal (absence of compounds normalized as 1.00)” value is 1.11.
